Experimental data taken from PubChem BioAssay AID2060903 (Molecular Pharmacology Branch, DTP, NCI, 2025).

Tested on: 377384-186-R-J1-PDC complex spheroid viability
Experiment: Anticancer human tumor 377384-186-R-J1-PDC patient-derived pancreatic carcinoma cell line growth inhibition [RAS]
Conditions: for IC50: curve of first compound; for viability, T/C: stronger effect = lower value
Procedure, shortened: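 Multi-cell-type spheroids: tumor cells plus HUVEC endothelial cells and mesenchymal stem cells. RAS-pathway inhibitors were combined with targeted agents, each dosed in half-log steps down from clinical Cmax, or from 10 microM when Cmax was unknown.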

[1] = second compound 0.0316 µM, first compound 0.00316 µM
[2] = second compound 0.0316 µM, first compound 0.01 µM
[3] = second compound 0.0316 µM, first compound 0.0316 µM
[4] = second compound 0.0316 µM, first compound 0.1 µM
[5] = second compound 0.0316 µM, first compound 0.316 µM
[6] = second compound 0.0316 µM, first compound 1 µM
[7] = second compound 0.1 µM, first compound 0.00316 µM
[8] = second compound 0.1 µM, first compound 0.01 µM
[9] = second compound 0.1 µM, first compound 0.0316 µM
[10] = second compound 0.1 µM, first compound 0.1 µM
[11] = second compound 0.1 µM, first compound 0.316 µM
[12] = second compound 0.1 µM, first compound 1 µM
[13] = second compound 0.316 µM, first compound 0.00316 µM
[14] = second compound 0.316 µM, first compound 0.01 µM
[15] = second compound 0.316 µM, first compound 0.0316 µM
[16] = second compound 0.316 µM, first compound 0.1 µM
[17] = second compound 0.316 µM, first compound 0.316 µM
[18] = second compound 0.316 µM, first compound 1 µM
[19] = second compound 1 µM, first compound 0.00316 µM
[20] = second compound 1 µM, first compound 0.01 µM
[21] = second compound 1 µM, first compound 0.0316 µM
[22] = second compound 1 µM, first compound 0.1 µM
[23] = second compound 1 µM, first compound 0.316 µM
[24] = second compound 1 µM, first compound 1 µM
[25] = second compound 3.16 µM, first compound 0.00316 µM
[26] = second compound 3.16 µM, first compound 0.01 µM
[27] = second compound 3.16 µM, first compound 0.0316 µM
[28] = second compound 3.16 µM, first compound 0.1 µM
[29] = second compound 3.16 µM, first compound 0.316 µM
[30] = second compound 3.16 µM, first compound 1 µM
[31] = second compound 10 µM, first compound 0.00316 µM
[32] = second compound 10 µM, first compound 0.01 µM
[33] = second compound 10 µM, first compound 0.0316 µM
[34] = second compound 10 µM, first compound 0.1 µM
[35] = second compound 10 µM, first compound 0.316 µM
[36] = second compound 10 µM, first compound 1 µM
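Note: spheroids exposed to compounds for seven days before readout.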

C=CC(=O)N1CCN(c2nc(OCC3CCCN3C)nc3c(F)c(-c4nc(N)cc(C)c4C(F)(F)F)c(Cl)cc23)C(C)C1 (stereo not drawn) + C#Cc1c(F)ccc2cc(O)cc(-c3ncc4c(N5CC6CCC(C5)N6)nc(OCC56CCCN5CC(F)C6)nc4c3F)c12
IC50 (second compound 0.0316 µM): < 3.16 nM
IC50 (second compound 0.1 µM): < 3.16 nM
IC50 (second compound 0.316 µM): < 3.16 nM
IC50 (second compound 1 µM): < 3.16 nM
IC50 (second compound 3.16 µM): < 3.16 nM
IC50 (second compound 10 µM): < 3.16 nM
viability, T/C [1]: 24.6%
viability, T/C [2]: 16.6%
viability, T/C [3]: 20.2%
viability, T/C [4]: 20.3%
viability, T/C [5]: 10.2%
viability, T/C [6]: 9.03%
viability, T/C [7]: 14.6%
viability, T/C [8]: 9.29%
viability, T/C [9]: 10.7%
viability, T/C [10]: 9.27%
viability, T/C [11]: 5.71%
viability, T/C [12]: 5.75%
viability, T/C [13]: 5.54%
viability, T/C [14]: 5.26%
viability, T/C [15]: 4.78%
viability, T/C [16]: 5.36%
viability, T/C [17]: 4.48%
viability, T/C [18]: 2.79%
viability, T/C [19]: 3.22%
viability, T/C [20]: 2.82%
viability, T/C [21]: 3.82%
viability, T/C [22]: 3.54%
viability, T/C [23]: 3.08%
viability, T/C [24]: 3.36%
viability, T/C [25]: 1.84%
viability, T/C [26]: 2.35%
viability, T/C [27]: 2.16%
viability, T/C [28]: 1.87%
viability, T/C [29]: 2.05%
viability, T/C [30]: 2.48%
viability, T/C [31]: 1.31%
viability, T/C [32]: 1.46%
viability, T/C [33]: 0.83%
viability, T/C [34]: 1.21%
viability, T/C [35]: 1.13%
viability, T/C [36]: 0.62%

CC(=O)OC12COC1CC(O)C1(C)C(=O)C(O)C3=C(C)C(OC(=O)C(O)C(NC(=O)OC(C)(C)C)c4ccccc4)CC(O)(C(OC(=O)c4ccccc4)C21)C3(C)C (stereo not drawn) + C#Cc1c(F)ccc2cc(O)cc(-c3ncc4c(N5CC6CCC(C5)N6)nc(OCC56CCCN5CC(F)C6)nc4c3F)c12
IC50 (second compound 0.0316 µM): < 31.6 nM
IC50 (second compound 0.1 µM): < 31.6 nM
IC50 (second compound 0.316 µM): < 31.6 nM
IC50 (second compound 1 µM): < 31.6 nM
IC50 (second compound 3.16 µM): < 31.6 nM
IC50 (second compound 10 µM): < 31.6 nM
viability, T/C [3]: 2.38%
viability, T/C [4]: 3.09%
viability, T/C [5]: 3.14%
viability, T/C [6]: 3.55%
viability, T/C (second compound 0.0316 µM, first compound 3.16 µM): 3.94%
viability, T/C (second compound 0.0316 µM, first compound 10 µM): 3.06%
viability, T/C [9]: 2.23%
viability, T/C [10]: 2.57%
viability, T/C [11]: 2.12%
viability, T/C [12]: 1.89%
viability, T/C (second compound 0.1 µM, first compound 3.16 µM): 1.87%
viability, T/C (second compound 0.1 µM, first compound 10 µM): 3.18%
viability, T/C [15]: 2.05%
viability, T/C [16]: 2.18%
viability, T/C [17]: 2%
viability, T/C [18]: 2.01%
viability, T/C (second compound 0.316 µM, first compound 3.16 µM): 2.08%
viability, T/C (second compound 0.316 µM, first compound 10 µM): 1.78%
viability, T/C [21]: 1.73%
viability, T/C [22]: 1.59%
viability, T/C [23]: 1.53%
viability, T/C [24]: 1.76%
viability, T/C (second compound 1 µM, first compound 3.16 µM): 1.09%
viability, T/C (second compound 1 µM, first compound 10 µM): 1.72%
viability, T/C [27]: 1.58%
viability, T/C [28]: 1.73%
viability, T/C [29]: 1.51%
viability, T/C [30]: 1.74%
viability, T/C (second compound 3.16 µM, first compound 3.16 µM): 1.58%
viability, T/C (second compound 3.16 µM, first compound 10 µM): 1.95%
viability, T/C [33]: 0.77%
viability, T/C [34]: 0.5%
viability, T/C [35]: 0.68%
viability, T/C [36]: 0.75%
viability, T/C (second compound 10 µM, first compound 3.16 µM): 0.42%
viability, T/C (second compound 10 µM, first compound 10 µM): 0.94%

CCc1c2c(nc3ccc(O)cc13)-c1cc3c(c(=O)n1C2)COC(=O)[C@]3(O)CC + C#Cc1c(F)ccc2cc(O)cc(-c3ncc4c(N5CC6CCC(C5)N6)nc(OCC56CCCN5CC(F)C6)nc4c3F)c12
IC50 (second compound 0.0316 µM): < 0.949 nM
IC50 (second compound 0.1 µM): < 0.949 nM
IC50 (second compound 0.316 µM): < 0.949 nM
IC50 (second compound 1 µM): < 0.949 nM
IC50 (second compound 3.16 µM): < 0.949 nM
IC50 (second compound 10 µM): < 0.949 nM
viability, T/C (second compound 0.0316 µM, first compound 0.000949 µM): 19.9%
viability, T/C (second compound 0.0316 µM, first compound 0.003 µM): 11.3%
viability, T/C (second compound 0.0316 µM, first compound 0.00949 µM): 6.54%
viability, T/C (second compound 0.0316 µM, first compound 0.03 µM): 4.38%
viability, T/C (second compound 0.0316 µM, first compound 0.0949 µM): 1.63%
viability, T/C (second compound 0.0316 µM, first compound 0.3 µM): 1.45%
viability, T/C (second compound 0.1 µM, first compound 0.000949 µM): 10.2%
viability, T/C (second compound 0.1 µM, first compound 0.003 µM): 5.47%
viability, T/C (second compound 0.1 µM, first compound 0.00949 µM): 3.3%
viability, T/C (second compound 0.1 µM, first compound 0.03 µM): 2.38%
viability, T/C (second compound 0.1 µM, first compound 0.0949 µM): 1.62%
viability, T/C (second compound 0.1 µM, first compound 0.3 µM): 1.48%
viability, T/C (second compound 0.316 µM, first compound 0.000949 µM): 4.45%
viability, T/C (second compound 0.316 µM, first compound 0.003 µM): 3.34%
viability, T/C (second compound 0.316 µM, first compound 0.00949 µM): 2.87%
viability, T/C (second compound 0.316 µM, first compound 0.03 µM): 1.65%
viability, T/C (second compound 0.316 µM, first compound 0.0949 µM): 1.51%
viability, T/C (second compound 0.316 µM, first compound 0.3 µM): 1.36%
viability, T/C (second compound 1 µM, first compound 0.000949 µM): 3.89%
viability, T/C (second compound 1 µM, first compound 0.003 µM): 2.04%
viability, T/C (second compound 1 µM, first compound 0.00949 µM): 2.4%
viability, T/C (second compound 1 µM, first compound 0.03 µM): 1.31%
viability, T/C (second compound 1 µM, first compound 0.0949 µM): 1.14%
viability, T/C (second compound 1 µM, first compound 0.3 µM): 1.05%
viability, T/C (second compound 3.16 µM, first compound 0.000949 µM): 1.66%
viability, T/C (second compound 3.16 µM, first compound 0.003 µM): 2.07%
viability, T/C (second compound 3.16 µM, first compound 0.00949 µM): 2.02%
viability, T/C (second compound 3.16 µM, first compound 0.03 µM): 1.73%
viability, T/C (second compound 3.16 µM, first compound 0.0949 µM): 1.46%
viability, T/C (second compound 3.16 µM, first compound 0.3 µM): 0.91%
viability, T/C (second compound 10 µM, first compound 0.000949 µM): 1.73%
viability, T/C (second compound 10 µM, first compound 0.003 µM): 0.98%
viability, T/C (second compound 10 µM, first compound 0.00949 µM): 1.39%
viability, T/C (second compound 10 µM, first compound 0.03 µM): 1.15%
viability, T/C (second compound 10 µM, first compound 0.0949 µM): 0.97%
viability, T/C (second compound 10 µM, first compound 0.3 µM): 0.48%

Nc1ccn(C2OC(CO)C(O)C2(F)F)c(=O)n1 (stereo not drawn) + C#Cc1c(F)ccc2cc(O)cc(-c3ncc4c(N5CC6CCC(C5)N6)nc(OCC56CCCN5CC(F)C6)nc4c3F)c12
IC50 (second compound 0.0316 µM): < 3.16 nM
IC50 (second compound 0.1 µM): < 3.16 nM
IC50 (second compound 0.316 µM): < 3.16 nM
IC50 (second compound 1 µM): < 3.16 nM
IC50 (second compound 3.16 µM): < 3.16 nM
IC50 (second compound 10 µM): < 3.16 nM
viability, T/C [1]: 18.7%
viability, T/C [2]: 10.9%
viability, T/C [3]: 5.1%
viability, T/C [4]: 2.32%
viability, T/C [5]: 1.53%
viability, T/C [6]: 1.48%
viability, T/C [7]: 10.6%
viability, T/C [8]: 5.99%
viability, T/C [9]: 3.67%
viability, T/C [10]: 2.25%
viability, T/C [11]: 1.8%
viability, T/C [12]: 1.59%
viability, T/C [13]: 3.96%
viability, T/C [14]: 3.01%
viability, T/C [15]: 2.14%
viability, T/C [16]: 1.91%
viability, T/C [17]: 1.53%
viability, T/C [18]: 1.47%
viability, T/C [19]: 2.36%
viability, T/C [20]: 2.41%
viability, T/C [21]: 1.7%
viability, T/C [22]: 1.46%
viability, T/C [23]: 1.44%
viability, T/C [24]: 1.36%
viability, T/C [25]: 2.1%
viability, T/C [26]: 1.41%
viability, T/C [27]: 1.83%
viability, T/C [28]: 1.8%
viability, T/C [29]: 1.48%
viability, T/C [30]: 1.3%
viability, T/C [31]: 1.37%
viability, T/C [32]: 1.08%
viability, T/C [33]: 1.21%
viability, T/C [34]: 1.3%
viability, T/C [35]: 1.62%
viability, T/C [36]: 1.15%
